Source: US9115086B2, “Therapeutic compositions and related methods of use” (AGIOS PHARMACEUTICALS, INC., priority 2009, dated 2015)

Target: T1, PKM2 (Homo sapiens, UniProt P14618)
T1 construct: PKM2 stock enzyme solution was diluted in Reaction Buffer
Test: PKM2 Assay (activation, LDH-coupled NADH absorbance at 340 nm)
Assay type: biochemical
Details: activation of PKM2
Description: • PKM2 stock enzyme solution was diluted in Reaction Buffer • 2 μL of compound was added into each well first, and then 180 μL of the Reaction Mix was added. • Reaction mixture with compound (without ADP) were incubated for 30 minutes at 4° C. • Plates were re-equilibrated to room temperature prior to adding 20 μL ADP to initiate the reaction. • Reaction progress was measured as changes in absorbance at 340 nm wavelength at room temperature (25° C.) Reaction Mix: PKM2 (50 ng/well), ADP (0.7 mM), PEP (0.15 mM), NADH (180 μM), LDH (2 units) in Reaction Buffer Reaction Buffer: 100 mM KCl, 50 mM Tris pH 7.5, 5 mM MgCl2, 1 mM DTT, 0.03% BSA.

T1 sequence (P14618 whole entry): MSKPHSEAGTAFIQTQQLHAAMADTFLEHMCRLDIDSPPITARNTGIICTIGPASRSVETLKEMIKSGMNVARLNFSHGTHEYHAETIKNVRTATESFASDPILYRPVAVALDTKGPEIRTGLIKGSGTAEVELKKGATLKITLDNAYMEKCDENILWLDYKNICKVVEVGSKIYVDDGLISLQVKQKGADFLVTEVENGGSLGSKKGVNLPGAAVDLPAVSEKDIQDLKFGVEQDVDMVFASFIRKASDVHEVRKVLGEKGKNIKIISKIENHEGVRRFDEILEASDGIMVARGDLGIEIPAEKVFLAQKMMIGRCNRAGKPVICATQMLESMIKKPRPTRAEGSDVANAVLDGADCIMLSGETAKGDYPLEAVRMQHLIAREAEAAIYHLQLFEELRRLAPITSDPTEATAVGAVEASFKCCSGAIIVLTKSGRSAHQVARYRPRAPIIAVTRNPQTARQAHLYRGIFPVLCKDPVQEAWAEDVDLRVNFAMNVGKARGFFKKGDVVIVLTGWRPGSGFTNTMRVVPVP

| Compound | EC50 [µM] |
| --- | --- |
| O=C(COc1ccc(-n2cnnn2)cc1)N1CCN(S(=O)(=O)c2ccc3ccccc3c2)CC1 | < 10 |
| O=C(COc1ccccc1)N1CCN(S(=O)(=O)c2ccc3ccccc3c2)CC1 | < 10 |
| Cc1ccc(OCC(=O)N2CCN(S(=O)(=O)c3ccc4ccccc4c3)CC2)cc1 | < 10 |
| COC(=O)c1ccc(OCC(=O)N2CCN(S(=O)(=O)c3ccc4ccccc4c3)CC2)cc1 | < 10 |
| CC(C)(C)OCC(=O)N1CCN(S(=O)(=O)c2ccc3sc(=O)sc3c2)CC1 | 10 to 100 |
| O=C(C1CCCCC1)N1CCN(S(=O)(=O)c2ccc3ccccc3c2)CC1 | < 10 |
| O=C(C1CCCCC1)N1CCN(S(=O)(=O)c2cccc(C(F)(F)F)c2)CC1 | < 10 |
| O=C(COc1ccc(-n2cnnn2)cc1)N1CCN(S(=O)(=O)c2cccn2-c2ncc(C(F)(F)F)cc2Cl)CC1 | 10 to 100 |
| O=C(OCc1ccccc1)N1CCN(S(=O)(=O)c2ccc3ccccc3c2)CC1 | < 10 |
| O=C(Cc1ccc(C(F)(F)F)cc1)N1CCN(S(=O)(=O)c2cc(C(F)(F)F)cc(C(F)(F)F)c2)CC1 | > 100 |
| O=C(Cc1ccc(C(F)(F)F)cc1)N1CCN(S(=O)(=O)c2cc(Cl)cc(Cl)c2)CC1 | 10 to 100 |
| O=C(CCc1ccccc1)N1CCN(S(=O)(=O)c2ccc3ccccc3c2)CC1 | < 10 |
| O=C(OCc1ccccc1)N1CCN(S(=O)(=O)c2ccccc2)CC1 | < 10 |
| O=C(CCc1ccc(C(F)(F)F)cc1)N1CCN(S(=O)(=O)c2ccc3ccccc3c2)CC1 | < 10 |
| O=C(COc1ccccc1)N1CCN(S(=O)(=O)c2ccccc2)CC1 | < 10 |
| O=C(COc1ccc(-n2cnnn2)cc1)N1CCN(S(=O)(=O)c2c(F)cccc2F)CC1 | < 10 |
| COc1ccc(Cl)cc1S(=O)(=O)N1CCN(C(=O)COc2ccc(-n3cnnn3)cc2)CC1 | 10 to 100 |
| O=C(COc1ccc(-n2cnnn2)cc1)N1CCN(S(=O)(=O)c2ccccc2)CC1 | < 10 |
| O=C(COc1ccc(-n2cnnn2)cc1)N1CCN(S(=O)(=O)c2ccc(F)cc2)CC1 | < 10 |
| O=C(COc1ccc(-n2cnnn2)cc1)N1CCN(S(=O)(=O)c2cccc3ccccc23)CC1 | < 10 |
| Cc1ccc(SCC(=O)N2CCN(S(=O)(=O)c3ccc4ccccc4c3)CC2)cc1 | < 10 |

| Compound | EC50 [µM] |
| --- | --- |
| O=C(CSc1ccc(Cl)cc1Cl)N1CCN(S(=O)(=O)c2ccc3ccccc3c2)CC1 | < 10 |
| O=C(CSc1ccc(F)cc1)N1CCN(S(=O)(=O)c2ccc3ccccc3c2)CC1 | < 10 |
| O=C(COc1ccc(-n2cnnn2)cc1)N1CCN(S(=O)(=O)c2cccc3cccnc23)CC1 | 10 to 100 |
| O=C(COCc1ccccc1)N1CCN(S(=O)(=O)c2ccc3ccccc3c2)CC1 | < 10 |
| O=C(C1CC1c1ccc(C(F)(F)F)cc1)N1CCN(S(=O)(=O)c2ccc3ccccc3c2)CC1 (stereo not drawn) | < 10 |
| O=C(C1CC1c1ccc(C(F)(F)F)cc1)N1CCN(S(=O)(=O)c2cc(C3CC3)cc(C(F)(F)F)c2)CC1 (stereo not drawn) | < 10 |
| O=C(C1CC1c1ccc(C(F)(F)F)cc1)N1CCN(S(=O)(=O)c2ccc3c(c2)OCCO3)CC1 (stereo not drawn) | < 10 |
| O=C(Cc1ccc(C(F)(F)F)cc1)N1CCN(S(=O)(=O)c2ccc3ccccc3c2)CC1 | < 10 |
| O=C(CC1CC1)N1CCN(S(=O)(=O)c2ccc3ccccc3c2)CC1 | < 10 |
| O=C(COc1cccnc1)N1CCN(S(=O)(=O)c2ccc3ccccc3c2)CC1 | < 10 |
| O=C(CNc1ccccc1)N1CCN(S(=O)(=O)c2ccc3ccccc3c2)CC1 | < 10 |
| O=C(COc1ccccc1)N1CCN(S(=O)(=O)c2ccc(F)cc2)CC1 | < 10 |
| O=C(OCc1cccnc1)N1CCN(S(=O)(=O)c2ccc3ccccc3c2)CC1 | < 10 |
| Cc1cc(C)cc(OCC(=O)N2CCN(S(=O)(=O)c3ccc4ccccc4c3)CC2)c1 | < 10 |
| COc1ccc(OCC(=O)N2CCN(S(=O)(=O)c3ccc4ccccc4c3)CC2)cc1 | < 10 |
| O=C(COc1ccccc1)N1CCN(S(=O)(=O)c2cccc3ccccc23)CC1 | < 10 |
| CN1C(=O)COc2ccc(S(=O)(=O)N3CCN(C(=O)COc4ccccc4)CC3)cc21 | 10 to 100 |
| CN1C(=O)C(=O)c2cc(S(=O)(=O)N3CCN(C(=O)COc4ccccc4)CC3)ccc21 | 10 to 100 |
| O=C(COc1ccc(C(F)(F)F)cc1)N1CCN(S(=O)(=O)c2ccc3c(c2)OCCO3)CC1 | > 100 |
| O=C(COc1ccccc1)N1CCN(S(=O)(=O)c2cccc3cccnc23)CC1 | < 10 |
| O=C(Cc1ccc(C(F)(F)F)cc1)N1CCN(S(=O)(=O)c2cccc3ccccc23)CC1 | < 10 |
